These results are taken from ChEMBL document CHEMBL5325505, “Discovery of chiral 1,4-diarylazetidin-2-one-based hydroxamic acid derivatives as novel tubulin polymerization inhibitors with histone deacetylase inhibitory activity” (Bioorg Med Chem, 2023).

In brackets after ≈: the same amount, converted by molar mass.

In series [1] the test system is BE(2)-C. The series can be described thus: Antitumor activity against human BE2C cells xenografted in nude mouse assessed as tumor growth inhibition at 5 mg/kg, ip treated for every 3 days relative to control. Format: functional. As to conditions: 72 h, time 3 day, read-out: TGI. For orientation: A xenograft is tissue or cells of one species grown in another, often human tumour cells in immunodeficient mice.

In a further series the test system is HCT-116. The series can be described thus: Antiproliferative activity against human HCT-116 cells incubated for 48 hrs by MTT assay. Format: functional, cell-based. The settings on record: HCT-116, 48 h. A general note: Tetrazolium dyes change colour on reduction, which living cells bring about.
For series [2], the system named is BE(2)-C. The series can be described thus: Antiproliferative activity against human BE2C cells incubated for 48 hrs by MTT assay. Format: functional, cell-based.
The next series has as its system A549. The series can be described thus: Antiproliferative activity against human A549 cells incubated for 48 hrs by MTT assay. The settings on record: A549, 48 h. Format: functional, cell-based.
The subject of the next series is U-87 MG. The experiment in a line: Antiproliferative activity against human U-87 MG cells incubated for 48 hrs by MTT assay. In kind it is functional, cell-based, U-87MG ATCC.
A further series has as its target Histone deacetylase 1 (Homo sapiens, UniProt Q13547). The experiment in a line: Inhibition of HDAC1 (unknown origin).
Series [3] deals with T1, Protein deacetylase HDAC6 (Homo sapiens, UniProt Q9UBN7).
T1 sequence (Q9UBN7 whole entry): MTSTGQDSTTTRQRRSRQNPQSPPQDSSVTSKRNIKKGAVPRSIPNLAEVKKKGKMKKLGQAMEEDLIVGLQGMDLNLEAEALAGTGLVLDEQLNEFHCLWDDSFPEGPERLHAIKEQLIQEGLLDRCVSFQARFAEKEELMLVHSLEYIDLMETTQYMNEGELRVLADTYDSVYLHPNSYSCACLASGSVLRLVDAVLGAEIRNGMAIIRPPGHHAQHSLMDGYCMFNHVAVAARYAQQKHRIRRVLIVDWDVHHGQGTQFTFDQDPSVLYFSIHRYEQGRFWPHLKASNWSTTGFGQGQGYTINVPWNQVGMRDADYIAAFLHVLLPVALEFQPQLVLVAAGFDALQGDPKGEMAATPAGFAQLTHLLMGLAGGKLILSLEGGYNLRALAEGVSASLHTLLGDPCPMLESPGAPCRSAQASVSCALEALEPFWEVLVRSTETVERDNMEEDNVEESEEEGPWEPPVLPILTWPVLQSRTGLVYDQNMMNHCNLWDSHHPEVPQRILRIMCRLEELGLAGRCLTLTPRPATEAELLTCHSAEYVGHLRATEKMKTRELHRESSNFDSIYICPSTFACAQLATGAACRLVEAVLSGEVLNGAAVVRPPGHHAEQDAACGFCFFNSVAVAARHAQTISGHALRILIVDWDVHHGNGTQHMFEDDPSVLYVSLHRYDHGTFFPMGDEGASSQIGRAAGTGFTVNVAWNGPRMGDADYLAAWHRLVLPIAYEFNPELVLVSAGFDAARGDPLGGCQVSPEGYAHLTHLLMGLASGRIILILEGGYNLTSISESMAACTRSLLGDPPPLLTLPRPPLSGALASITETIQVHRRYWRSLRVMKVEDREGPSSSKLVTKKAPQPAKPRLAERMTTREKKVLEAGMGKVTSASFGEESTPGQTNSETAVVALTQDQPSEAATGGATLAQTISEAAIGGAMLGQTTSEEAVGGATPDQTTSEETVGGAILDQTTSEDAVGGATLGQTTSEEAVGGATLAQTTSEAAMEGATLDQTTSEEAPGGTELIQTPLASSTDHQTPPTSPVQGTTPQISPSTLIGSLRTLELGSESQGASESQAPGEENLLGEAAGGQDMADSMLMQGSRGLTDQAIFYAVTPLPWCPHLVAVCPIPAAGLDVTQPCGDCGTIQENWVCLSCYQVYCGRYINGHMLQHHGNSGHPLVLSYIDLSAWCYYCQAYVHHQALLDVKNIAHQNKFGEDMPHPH
The experiment in a line: Inhibition of HDAC6 (unknown origin).

For the next series, the target named is T2, Histone deacetylase 8 (Homo sapiens, UniProt Q9BY41).
T2 sequence (Q9BY41 whole entry): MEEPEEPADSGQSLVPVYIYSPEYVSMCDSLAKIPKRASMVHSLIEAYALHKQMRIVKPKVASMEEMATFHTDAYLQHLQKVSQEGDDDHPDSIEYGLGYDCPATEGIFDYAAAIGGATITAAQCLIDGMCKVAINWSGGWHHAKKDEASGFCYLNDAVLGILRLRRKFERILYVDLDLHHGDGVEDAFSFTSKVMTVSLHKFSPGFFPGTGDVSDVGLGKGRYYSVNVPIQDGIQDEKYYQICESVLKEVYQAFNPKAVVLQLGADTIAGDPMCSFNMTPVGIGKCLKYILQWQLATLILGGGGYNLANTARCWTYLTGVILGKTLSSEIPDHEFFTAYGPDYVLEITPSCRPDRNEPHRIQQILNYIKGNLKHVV
The experiment in a line: Inhibition of HDAC8 (unknown origin).

Series [4] can be described thus: Aqueous solubility of compound at 1 mg incubated for 10 mins. In kind it is physicochemical.
Series [5] is described as follows: Metabolic stability in human liver microsomes assessed as compound remaining incubated for 10 mins. As to conditions: read-out: Stability. Format: ADME, Microsome. On the technique in general: Liver microsomes are vesicles of endoplasmic reticulum, rich in cytochrome P450 enzymes.
Series [6] in a line: Metabolic stability in human liver microsomes assessed as compound remaining incubated for 20 mins. Format: ADME, Microsome. The settings on record: liver microsomes, read-out: Stability.
A short description of series [7]: Metabolic stability in human liver microsomes assessed as compound remaining incubated for 30 mins. Format: ADME, Microsome. As to conditions: microsomes, 0.5 h.
The nature of series [8]: Metabolic stability in human liver microsomes assessed as intrinsic clearance. Format: ADME, Microsome. The settings on record: read-out: CLH.
The nature of series [9]: Metabolic stability in human liver microsomes assessed as compound remaining incubated for 60 mins. As to conditions: microsomes, 1 h. Format: ADME, Microsome.
Series [10] in a line: Metabolic stability in human liver microsomes assessed as half life. In kind it is ADME, Microsome.
Series [11] in a line: Metabolic stability in human liver microsomes assessed as compound remaining incubated for 5 mins. The settings on record: read-out: Stability. Format: ADME, Microsome.
The next series addresses Tubulin (Sus scrofa, UniProt P02554+P02550). The series can be described thus: Inhibition of tubulin polymerization of pig brain by absorbance based assay.

Histone deacetylase 1, sequence (Q13547 whole entry): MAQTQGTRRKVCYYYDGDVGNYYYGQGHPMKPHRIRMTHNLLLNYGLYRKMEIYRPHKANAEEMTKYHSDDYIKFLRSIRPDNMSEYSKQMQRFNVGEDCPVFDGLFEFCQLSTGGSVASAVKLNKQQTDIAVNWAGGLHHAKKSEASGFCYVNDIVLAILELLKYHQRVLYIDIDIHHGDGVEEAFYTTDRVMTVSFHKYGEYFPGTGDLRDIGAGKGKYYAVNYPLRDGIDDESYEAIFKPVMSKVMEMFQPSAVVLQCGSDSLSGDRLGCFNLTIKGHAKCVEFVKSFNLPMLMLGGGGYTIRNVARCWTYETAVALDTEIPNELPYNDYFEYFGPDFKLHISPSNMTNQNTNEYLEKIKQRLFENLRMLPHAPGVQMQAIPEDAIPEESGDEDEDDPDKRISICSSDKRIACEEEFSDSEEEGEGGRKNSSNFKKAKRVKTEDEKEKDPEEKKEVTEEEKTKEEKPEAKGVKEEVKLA

On to `CC(=O)O[C@H]1C(=O)[C@@]2(C)[C@H]([C@H](OC(=O)c3ccccc3)[C@]3(O)C[C@H](OC(=O)[C@H](O)[C@@H](NC(=O)c4ccccc4)c4ccccc4)C(C)=C1C3(C)C)[C@]1(OC(C)=O)CO[C@@H]1C[C@@H]2O` [PACLITAXEL], for which, in the series with BE(2)-C [1], the inhibition in vivo at 5 mg/kg amounted to 44%.

As usually defined, the IC50 is the concentration at which inhibition is half-maximal. A lower IC50 goes with higher potency. With `COc1ccc([C@H]2[C@H](COC(=O)c3ccc(C(=O)O)cc3)C(=O)N2c2cc(OC)c(OC)c(OC)c2)cc1O`, the half-inhibitory concentration (IC50) in the series with HCT-116 is 0.397 µM; in the series with BE(2)-C [2], 0.776 µM; in the series on A549 it was 0.326 µM; with U-87 MG it was 0.432 µM.

As for `COc1ccc([C@H]2[C@H](CNC(=O)c3ccc(C(=O)NO)cc3)C(=O)N2c2cc(OC)c(OC)c(OC)c2)cc1O`, the IC50 in the series with HCT-116 was 0.5 µM; in the series with BE(2)-C [2], 0.303 µM; with A549 it was 0.479 µM; in the series with U-87 MG it was > 10 µM.

`COc1ccc([C@H]2[C@H](COC(=O)CCC(=O)NO)C(=O)N2c2cc(OC)c(OC)c(OC)c2)cc1O`: the 50% inhibitory concentration (IC50) with HCT-116 was > 10 µM; in the series on BE(2)-C [2], 0.043 µM; at Histone deacetylase 1 it was 0.301 µM; in the series on A549 it was 0.016 µM; in the series with U-87 MG, > 10 µM; in series [3], 2.41 µM. At Histone deacetylase 8, half-maximal inhibition (IC50) was put at 0.288 µM.

As to `COc1ccc([C@H]2[C@H](C)C(=O)N2c2cc(OC)c(OC)c(OC)c2)cc1OCCCCCC(=O)NO`, the IC50 is 0.464 µM in the series on HCT-116, 7.69 µM with BE(2)-C [2], 7.82 µM in the series with A549 and > 10 µM in the series with U-87 MG.

In the case of `COc1ccc([C@H]2[C@H](C)C(=O)N2c2cc(OC)c(OC)c(OC)c2)cc1OCCCC(=O)NO`, the IC50 in the series on HCT-116 was > 10 µM; with BE(2)-C [2], 1.81 µM; in the series on A549, 3.65 µM; in the series on U-87 MG it was 4.4 µM.

On to `COc1ccc([C@H]2[C@H](CNC(=O)CCC(=O)NO)C(=O)N2c2cc(OC)c(OC)c(OC)c2)cc1O`, for which the IC50 with HCT-116, in the series on BE(2)-C [2], with A549 and in the series with U-87 MG was > 10 µM each time.

The solubility is how much of the substance goes into solution per volume. Lower therefore signals little dissolved substance. `COc1ccc(/C=C\c2cc(OC)c(OC)c(OC)c2)cc1O` [COMBRETASTATIN A4] gave a solubility at 10 min in series [4] of 1.04 µg/mL (≈ 3.29 µM).

As for `C=C1C(=O)N(c2cc(OC)c(OC)c(OC)c2)[C@H]1c1ccc(OC)c(/C=C/CC(=O)NO)c1`, the IC50 came out at 0.62 µM in the series on HCT-116, 0.045 µM with BE(2)-C [2], 1.26 µM in the series with A549 and 2.15 µM in the series with U-87 MG.

For the compound `COc1ccc([C@H]2[C@H](CNC(=O)CCCC(=O)NO)C(=O)N2c2cc(OC)c(OC)c(OC)c2)cc1O`, the IC50 with HCT-116, in the series on BE(2)-C [2], in the series on A549 and in the series with U-87 MG was > 10 µM in each case.

`O=C(CCCCCCC(=O)Nc1ccccc1)NO` [VORINOSTAT] had a solubility at 10 min in series [4] of 91.7 µg/mL (≈ 347 µM). Further, in series [5], the remaining at 10 min stood at 98.4%. This compound registered an IC50 with BE(2)-C [2] of 2.11 µM. Also, the remaining at 20 min in [6] worked out at 99%. The values for the Stability in [7] and in series [9] were 105.7% and 92.8%, respectively. Also, in [8], the CLint scaled is < 8.6 mL/min/kg. Moreover, the t1/2 in [10] was determined as 2.42 h. In series [11], the remaining at 5 min came out at 96.4%.

For the compound `C=C1C(=O)N(c2cc(OC)c(OC)c(OC)c2)[C@H]1c1ccc(OC)c(O)c1`, the IC50 with HCT-116 worked out at 0.234 µM; with BE(2)-C [2] it was 0.186 µM; in the series on A549, 0.128 µM; with U-87 MG, 0.143 µM; at Tubulin it was 6.6 µM.

Take `C=C1C(=O)N(c2cc(OC)c(OC)c(OC)c2)[C@H]1c1ccc(OC)c(/C=C/C(=O)NO)c1`: the IC50 worked out at 0.06 µM with HCT-116, 0.035 µM in the series with BE(2)-C [2], 0.084 µM with A549 and 0.072 µM in the series on U-87 MG.

Regarding `COc1ccc([C@H]2[C@H](COC(=O)CCCC(=O)NO)C(=O)N2c2cc(OC)c(OC)c(OC)c2)cc1O`, the IC50 in the series on HCT-116, in the series with BE(2)-C [2], in the series with A549 and with U-87 MG was > 10 µM in each case.

Consider `COc1ccc([C@H]2[C@H](C)C(=O)N2c2cc(OC)c(OC)c(OC)c2)cc1OCC(=O)NO`, for which the IC50 with HCT-116 stood at 0.082 µM; in the series on BE(2)-C [2], 0.03 µM; in the series with A549, 0.054 µM; in the series with U-87 MG, 0.056 µM.

On to `COc1ccc([C@H]2[C@@H](C)C(=O)N2c2cc(OC)c(OC)c(OC)c2)cc1/C=C/C(=O)NO`, for which the IC50 in the series on HCT-116 turned out to be 0.304 µM; with BE(2)-C [2], 0.317 µM; in the series on A549 it was 0.173 µM; with U-87 MG it was 0.023 µM.

Take `COc1ccc([C@H]2[C@H](C)C(=O)N2c2cc(OC)c(OC)c(OC)c2)cc1OCCCCC(=O)NO`: the IC50 in the series on HCT-116 was > 10 µM; in the series on BE(2)-C [2], 3.97 µM; with A549, 2.34 µM; in the series with U-87 MG, > 10 µM.
